Source: US5436137A, “DNA sequence which encodes a peptide capable of promoting acrosome reaction” (Oregon Regional Primate Research Center, priority 1993, dated 1995)

Legend:
[1] = test system: human sperm; assay: acrosome reaction in capacitated human sperm (acrosome specific monoclonal antibody, FITC fluorescence); type: cell-based; conditions: bombesin at a concentration as low as 5 nM, added after overnight capacitation, FIG. 5
Description: (§1) To measure the effects of bombesin on the acrosome reaction, capacitation was conducted in the presence or absence of bombesin. After incubation, samples of sperm were removed to determine the percentage of sperm which had undergone the acrosome reaction as measured with an acrosome specific monoclonal antibody and FITC fluorescence [see Wolf, D. P. Am. J. Reprod. Immunol. 20:106-113 (1989), which is hereby incorporated by reference].
For human sperm, capacitation was achieved by overnight incubation of sperm in balanced salt and 0.3% bovine serum albumin, after which bombesin was added to induce the acrosome reaction.

[2] = test system: monkey sperm; assay: acrosome reaction in capacitated monkey sperm (acrosome specific monoclonal antibody, FITC fluorescence); type: cell-based; conditions: bombesin at a concentration as low as 5 nM, present during 60 minutes capacitation, FIG. 5
Description: For monkeys, sperm was collected, washed twice in balanced salts, resuspended in lactate/bicarbonate and dibutyryl cAMP, and then incubated for 60 minutes. […] See Wolf, D. P. et al. Mol. Reprod. Dev. 27:261-280 (1990); Lanzendorf, S. E. et al. Mol. Reprod. Dev. 25:61-66 (1990); and Wolf D. P. et al. Biol. Reprod. 41:335-346 (1989). All of these three publications are hereby incorporated by reference.
as §1

Compound: CSCC[C@H](NC(=O)[C@H](CC(C)C)NC(=O)[C@H](Cc1cnc[nH]1)NC(=O)CNC(=O)[C@@H](NC(=O)[C@H](C)NC(=O)[C@H](Cc1c[nH]c2ccccc12)NC(=O)[C@H](CCC(N)=O)NC(=O)[C@H](CC(N)=O)NC(=O)CNC(=O)[C@H](CC(C)C)NC(=O)[C@H](CCCN=C(N)N)NC(=O)[C@H](CCC(N)=O)NC(=O)[C@@H]1CCC(=O)N1)C(C)C)C(N)=O [bombesin]
- increase in the acrosome reaction [1]: 2 fold
- increase in the acrosome reaction [2]: 2 fold
